This is an account of results in ChEMBL document CHEMBL1201862, “PubChem BioAssay data set” (2004).

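Step 1: Grow cells in 96-well plates. Step 2: Expose to compound for 48 hours at 5 concentrations. Step 3: Interpolate endpoints linearly; if unreached, use highest concentration. Abbreviation: GI50, concentration required for 50% inhibition of growth.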 The source made the active and inactive calls. Rule as the data show it: active = GI50 up to about 1.1 µM and inactive = higher.

Test systems include OVCAR-5; HOP-62; SF-295; LOX IMVI; IGROV-1; CAKI-1; M14; MOLT-4; OVCAR-3; COLO 205; UACC-62; 786-0; NCI-H23; UO-31; SK-MEL-28; SW-620; RXF 393; CCRF-CEM; SNB-75; NCI-H522.
Assay in all cases: DTP human tumour cell line panel, 48 h

Consider `Cc1ccc(-c2cs/c(=N\c3ccccc3)n2NC(=O)c2ccncc2)cc1`, for which the GI50 was 40.8 µM (inactive) in the assay on OVCAR-5; 39.4 µM (inactive) in the assay on HOP-62; 27.6 µM (inactive) in the assay on SF-295; 34.2 µM (inactive) with LOX IMVI; 40.3 µM (inactive) in the assay on IGROV-1; 26.4 µM (inactive) in the assay on CAKI-1. Besides, the GI50 with M14 is 33 µM (inactive); with MOLT-4, 26.4 µM (inactive); in the assay on OVCAR-3, 35.6 µM (inactive); in the assay with COLO 205, 29.8 µM (inactive); with UACC-62, 20.5 µM (inactive); in the assay on 786-0, 48 µM (inactive). The GI50 in the assay on NCI-H23 is 31.3 µM (inactive); with UO-31, 30.6 µM (inactive); with SK-MEL-28 it was 36.6 µM (inactive); in the assay on SW-620, 35.8 µM (inactive); in the assay with RXF 393 it was 35.2 µM (inactive); with CCRF-CEM it was 36.6 µM (inactive). Moreover, the GI50 in the assay on SNB-75 was 50.6 µM (inactive).

Regarding `CC[P+](C)(Cc1ccccc1)c1ccccc1` (stereo not drawn), the GI50 in the assay on OVCAR-5 was > 100 µM (inactive); with HOP-62, > 100 µM (inactive); in the assay on SF-295, > 100 µM (inactive); with LOX IMVI, > 100 µM (inactive); with IGROV-1, > 100 µM (inactive); with NCI-H522, 44.2 µM (inactive). For the same compound, the GI50 was > 100 µM (inactive) in the assay on M14; > 100 µM (inactive) in the assay with MOLT-4; 58.5 µM (inactive) in the assay with OVCAR-3; 69.5 µM (inactive) in the assay on COLO 205; > 100 µM (inactive) in the assay on UACC-62; > 100 µM (inactive) with 786-0. Also, the GI50 in the assay on NCI-H23, with UO-31, in the assay with SK-MEL-28, in the assay with SW-620, in the assay with RXF 393 and with CCRF-CEM was > 100 µM (inactive) each time. Also, the GI50 in the assay with SNB-75 was > 100 µM (inactive).

Consider `O=C(/C=C\c1ccccc1-c1ccccc1)c1ccccc1`, for which the GI50 is > 100 µM (inactive) in the assay with OVCAR-5; > 100 µM (inactive) in the assay with HOP-62; > 100 µM (inactive) in the assay on SF-295; > 100 µM (inactive) in the assay with IGROV-1; > 100 µM (inactive) with CAKI-1; 17.9 µM (inactive) in the assay on NCI-H522. Besides, the GI50 with M14 was > 100 µM (inactive); in the assay with MOLT-4, 92 µM (inactive); in the assay with OVCAR-3 it was > 100 µM (inactive); in the assay with COLO 205, > 100 µM (inactive); in the assay with UACC-62 it was > 100 µM (inactive); in the assay with 786-0, > 100 µM (inactive). The GI50 in the assay with NCI-H23 is 33.3 µM (inactive); in the assay on UO-31, > 100 µM (inactive); in the assay with SW-620, > 100 µM (inactive); in the assay on RXF 393, 45.5 µM (inactive); in the assay with CCRF-CEM it was > 100 µM (inactive); in the assay on SNB-75, 61.8 µM (inactive).

In the case of `c1csc(-c2sc(-c3ccsc3)cc2Cc2ccsc2)c1`, the GI50 with HOP-62, with SF-295, in the assay with LOX IMVI, with IGROV-1, in the assay with CAKI-1 and in the assay with M14 was > 10 µM (inactive) in each case. Moreover, the GI50 in the assay with MOLT-4, in the assay with COLO 205, with UACC-62, in the assay with 786-0, in the assay on NCI-H23 and in the assay with SK-MEL-28 was > 10 µM (inactive) in each case. Besides, the GI50 with SW-620, in the assay with RXF 393, with CCRF-CEM and in the assay with SNB-75 was > 10 µM (inactive) in each case.

`CCOC(=O)C(=O)Nc1ccccc1C`: the GI50 in the assay on OVCAR-5, in the assay on HOP-62, with LOX IMVI, in the assay on IGROV-1, in the assay with CAKI-1 and in the assay on NCI-H522 was > 100 µM (inactive) in each case. Moreover, the GI50 in the assay on M14, in the assay with MOLT-4, in the assay with COLO 205, with UACC-62, in the assay with 786-0 and in the assay on NCI-H23 was > 100 µM (inactive) in each case. Besides, the GI50 in the assay on UO-31, in the assay on SK-MEL-28, with SW-620, in the assay on RXF 393, in the assay on CCRF-CEM and in the assay on SNB-75 was > 100 µM (inactive) in each case.

For `O=C(NN=C1CCN(Cc2ccccc2)CC1)C(O)(c1ccccc1)c1ccccc1`, the GI50 with OVCAR-5, in the assay on HOP-62, in the assay on SF-295, in the assay with LOX IMVI, in the assay on IGROV-1 and in the assay on M14 was > 100 µM (inactive) in each case. Further, the GI50 in the assay with MOLT-4, with COLO 205, in the assay with UACC-62, with 786-0, with NCI-H23 and in the assay with UO-31 was > 100 µM (inactive) each time. For the same compound, the GI50 in the assay on SK-MEL-28, in the assay on SW-620, in the assay on RXF 393, with CCRF-CEM and in the assay on SNB-75 was > 100 µM (inactive) in each case.

`OCC(O)C(OC1OC(CO)C(O)C(O)C1O)c1nn(-c2ccc(Cl)cc2)c2nc3cc(Cl)ccc3nc12` (stereo not drawn): the GI50 in the assay on OVCAR-5, in the assay on HOP-62, in the assay on SF-295, in the assay with LOX IMVI, in the assay with NCI-H522 and in the assay on M14 was > 100 µM (inactive) in each case. The GI50 in the assay on MOLT-4, in the assay with OVCAR-3, in the assay with UACC-62, in the assay on 786-0, with NCI-H23 and in the assay with UO-31 was > 100 µM (inactive) each time. The GI50 in the assay with SK-MEL-28, in the assay with RXF 393, in the assay on CCRF-CEM and with SNB-75 was > 100 µM (inactive) each time.

Turning to `COC(=O)NC12CC3CC(CC(F)(C3)C1)C2`, the GI50 with OVCAR-5, with HOP-62, in the assay on LOX IMVI, in the assay on IGROV-1, in the assay on NCI-H522 and with M14 was > 100 µM (inactive) throughout. Besides, the GI50 with MOLT-4, in the assay on OVCAR-3, in the assay on COLO 205, in the assay on UACC-62, with 786-0 and with NCI-H23 was > 100 µM (inactive) in each case. In addition, the GI50 was > 100 µM (inactive) in the assay with UO-31; > 100 µM (inactive) in the assay with SK-MEL-28; > 100 µM (inactive) in the assay on SW-620; > 100 µM (inactive) in the assay with RXF 393; > 100 µM (inactive) in the assay with CCRF-CEM; 19.7 µM (inactive) in the assay on SNB-75.

For `Oc1cccc(C2SCc3nc4ccccc4n32)c1` (stereo not drawn), the GI50 with OVCAR-5 was 26.2 µM (inactive); in the assay with SF-295, 39.1 µM (inactive); in the assay with CAKI-1 it was 58.2 µM (inactive); in the assay on NCI-H522, 38.3 µM (inactive); in the assay on MOLT-4, 31.6 µM (inactive); in the assay with OVCAR-3, 45.6 µM (inactive). Further, the GI50 in the assay with COLO 205 is > 100 µM (inactive); with UACC-62 it was 77.1 µM (inactive); in the assay with 786-0 it was > 100 µM (inactive); in the assay with NCI-H23 it was 38.8 µM (inactive); with UO-31 it was 35.6 µM (inactive); in the assay on SK-MEL-28 it was 59.4 µM (inactive). Moreover, the GI50 was > 100 µM (inactive) in the assay with SW-620, 78.7 µM (inactive) with RXF 393, 48.2 µM (inactive) in the assay with CCRF-CEM and 4.17 µM (inactive) in the assay with SNB-75.

In the case of `CC(C)=CCC/C(C)=C/Cc1c2c(c3oc(-c4ccc(O)c(O)c4)c(O)c(=O)c3c1O)C=CC(C)(C)O2`, the GI50 was 7.18 µM (inactive) in the assay on OVCAR-5; 4.45 µM (inactive) with HOP-62; 5.62 µM (inactive) with SF-295; 2.11 µM (inactive) in the assay with IGROV-1; 1.78 µM (inactive) in the assay with CAKI-1; 0.916 µM (active) in the assay on NCI-H522. The GI50 in the assay with M14 was 2.8 µM (inactive); in the assay with MOLT-4, 1.77 µM (inactive); in the assay with OVCAR-3, 1.32 µM (inactive); in the assay with COLO 205 it was 1.64 µM (inactive); in the assay with UACC-62 it was 5.31 µM (inactive); in the assay with 786-0, 1.85 µM (inactive). In addition, the GI50 is 5.41 µM (inactive) with NCI-H23; 3.44 µM (inactive) in the assay on UO-31; 4.37 µM (inactive) in the assay with SK-MEL-28; 7.71 µM (inactive) in the assay with RXF 393; 1.79 µM (inactive) with CCRF-CEM; 5.22 µM (inactive) in the assay on SNB-75.

On to `CCOC(C)OCC#CCCBr` (stereo not drawn), for which the GI50 in the assay on OVCAR-5, in the assay on HOP-62, in the assay on SF-295, in the assay with LOX IMVI, in the assay on IGROV-1 and with CAKI-1 was > 100 µM (inactive) each time. Moreover, the GI50 in the assay with M14, in the assay on MOLT-4, in the assay with OVCAR-3, with COLO 205, in the assay with UACC-62 and in the assay on 786-0 was > 100 µM (inactive) each time. Moreover, the GI50 in the assay with NCI-H23 was > 100 µM (inactive); with UO-31 it was > 100 µM (inactive); with SW-620, > 100 µM (inactive); in the assay on RXF 393 it was > 100 µM (inactive); in the assay with CCRF-CEM, 37.1 µM (inactive); in the assay on SNB-75, 55.3 µM (inactive).

The GI50 is the concentration giving 50% growth inhibition.
